Experiment [1] concerns leukotriene biosynthesis (mouse peritoneal macrophages). The experiment in a line: Mouse Macrophage Assay (leukotriene inhibition). The note with it: zymosan stimulated, read-out: LEUKOTRIENE INHIBITION MACROPHAGE ED50. In kind it is cell-based. The procedure: Representative compounds of Formula I have been tested using the following assay to determine their mammalian leukotriene biosynthesis inhibiting activity.
Mouse peritoneal macrophages were treated sequentially with arachidonic acid (labelled with tritium); the compound being evaluated as an inhibitor, and a stimulator (zymosan). Metabolites derived from arachidonic acid (PGE2, 6-keto PG-F1α and Leukotriene C4) were separated from the incubation medium by extraction and chromatography, and then quantitated by determining the amount of radioactivity (cpm) associated with each of them. […] (This protocol is identical to that described in the reference except that the radioactivity herein associated with the LTC4 was determined by counting an aliquot of the final aqueous solution directly rather than chromatographying it first).
Reference: Humes, J. L. et al., J. Biol. Chem. 257, 1591-4 (1982).
The following table (Table II) reflects the leukotriene biosynthesis inhibiting ability of selected compounds of Formula I.

Experiment [2] deals with PAF-induced hyperalgesia (female Sprague-Dawley rats). The experiment in a line: PAF-Induced Hyperalgesia Assay. The settings on record: p.o. The class given is in vivo, rat. The procedure:
PAF-Induced Hyperalgesia Assay
Female Sprague-Dawley rats, 35-40 g were fasted overnight. Platelet activating factor, PAF, (L-lecithin B-acetyl O-alkyl) 1 μg/0.1 ml was given by subplantar injection in the rat paw. The compounds to be evaluated were homogenized in Aqueous Vehicle (0.9% benzyl alcohol, 0.5% Tween 80 and 0.4% methylcellulose) and administered orally in a volume of 0.1 ml, 30 minutes prior to PAF.
Animals were tested 1, 2, 3 and 4 hours after PAF administration. The vocalization threshold, defined as the pressure (mmHg) needed to evoke a squeak response, was recorded for both the injected and contralateral paw. No animal was subjected to pressure greater than 60 mmHg. Hyperalgesia is defined as a decrease in vocalization threshold as compared to a normal paw. Percent inhibition of hyperalgesia was calculated as the proportion of animals with vocalization thresholds greater than 200% of controls.

Another experiment has as its system asthmatic rats. The experiment in a line: Asthmatic Rat Assay (duration of antigen-induced dyspnea). In kind it is in vivo. An excerpt: Rats were obtained from an inbred line of asthmatic rats. Both female and male rats from 200 to 300 g were used.
Egg albumin (EA), grade V, crystallized and lyophilized, was obtained from Sigma Chemical Co., St. Louis, Bordetella pertussis vaccine, containing 30×10^9 killed bacteria per ml was obtained from the Institut Armand-Frappier, Laval des Rapides, Quebec. Aluminum hydroxide was obtained from the Regis Chemical Company, Chicago.
The challenge and subsequent respiratory recordings were carried out in a clear plastic box with internal dimensions 10×6×4 inches. The top of the box was removable; in use, it was held firmly in place by four clamps and an airtight seal was maintained by a soft rubber gasket. […] A Fleisch No. 0000 pneumotachograph was inserted into one end of the box and coupled to a Grass volumetric pressure transducer (PT5-A) which was then connected to a Beckman Type R Dynograph through appropriate couplers. While aerosolizing the antigen, the outlets were open and the pneumatachograph was isolated from the chamber. The outlets were closed and the pneumotachograph and the chamber were connected during the recording of the respiratory patterns. […]
Rats were sensitized by injecting (s.c.) 1 ml of a suspension containing 1 mg EA and 200 mg aluminum hydroxide in saline. […] Rats were then exposed to an aerosol of 3% EA in saline for exactly 1 minute, then their respiratory profiles were recorded for a further 25-30 minutes. The duration of continuous dyspnea was measured from the respiratory recordings.
Compounds were generally administered either intraperitoneally 1 hour prior to challenge or orally 11/2 hours prior to challenge. […] Their activity was determined in terms of their ability to decrease the duration of symptoms of dyspnea in comparison with a group of vehicle-treated controls. Usually, a compound was evaluated at a series of doses and an ED50 was determined. […]

In brackets after ≈: the same amount, converted by molar mass.

Turning to `CCOC(=O)c1oc2cccc(SC(=O)N(C)C)c2c1C`, the IC50 in experiment [1] was found to be 5 µg/mL (≈ 16.3 µM).
Same read-out and setting: the result for `Cc1c(C(=O)OC(C)(C)C)oc2cccc(O)c12` [drawing 83] reads 1 µg/mL (≈ 4.03 µM).
For `Cc1c(C(=O)NNc2ccccc2)oc2cccc(O)c12` [drawing 97], in experiment [2] (20 mg/kg), the “PAF HYPERALGESIA (percent inhibition of hyperalgesia)” value came out at 50%.
In the case of `CCOC(=O)c1oc2cccc(O)c2c1C` [drawing 93], the “ASTHMATIC RAT (% inhibition of duration of dyspnea)” value with asthmatic rats (5 mg/kg, i.v.) is 38%. The “PAF HYPERALGESIA (percent inhibition of hyperalgesia)” value in experiment [2] (10 mg/kg) worked out at 10%.
In the case of `CCOC(=O)c1oc2cccc(OC(=S)N(C)C)c2c1C`, in experiment [1], the IC50 was in the range of 2.5 to 5 µg/mL (≈ 8.13 to 16.3 µM).
Same read-out and setting: the result for `Cc1c(C(=O)O)oc2cccc(O)c12` reads 5 µg/mL (≈ 26 µM); that for `CC(=O)Oc1cccc2oc(C(=O)Nc3ccc(Cl)cc3)c(C)c12`, 0.2 µg/mL (≈ 0.582 µM).
In the case of `Cc1c(C(=O)Nc2ccccc2)oc2cccc(O)c12` [drawing 96], the “PAF HYPERALGESIA (percent inhibition of hyperalgesia)” value in experiment [2] (1.03 mg/kg) worked out at 60%.
For `Cc1c(C(=O)Nc2ccccc2)oc2cccc(O)c12` [drawing 90], the IC50 in experiment [1] lay within 1 to 5 µg/mL (≈ 3.74 to 18.7 µM).
Consider `Cc1c(C(=O)OC(C)(C)C)oc2cccc(O)c12` [drawing 94], for which, in the experiment with asthmatic rats (15 mg/kg, p.o.), the “ASTHMATIC RAT (% inhibition of duration of dyspnea)” value was 41%. Besides, the “PAF HYPERALGESIA (percent inhibition of hyperalgesia)” value in experiment [2] (10 mg/kg) is given as 60%.
As to `CCOC(=O)c1oc2cccc(OC(C)=O)c2c1C` [drawing 95], the “ASTHMATIC RAT (% inhibition of duration of dyspnea)” value in the experiment with asthmatic rats (5 mg/kg, i.v.) came to 63%. In addition, the “PAF HYPERALGESIA (percent inhibition of hyperalgesia)” value in experiment [2] (10 mg/kg) came to 50%.
Regarding `Cc1c(C(=O)NNc2ccccc2)oc2cccc(O)c12` [drawing 91], in experiment [1], the IC50 amounted to 1 µg/mL (≈ 3.54 µM).
On the same count and under the same terms, the result for `Cc1c(C(=O)NNc2ccc(Cl)cc2)oc2cccc(O)c12` [drawing 92] reads 1 µg/mL (≈ 3.16 µM).
Turning to `Cc1c(C(=O)NNc2ccc(Cl)cc2)oc2cccc(O)c12` [drawing 98], in experiment [2] (1 mg/kg), the “PAF HYPERALGESIA (percent inhibition of hyperalgesia)” value was 60%.
For `CC(=O)Oc1cccc2oc(C(=O)Nc3ccccc3)c(C)c12`, the IC50 in experiment [1] was determined as 0.2 µg/mL (≈ 0.647 µM).
Still for that read-out and setting: the result for `CCOC(=O)c1oc2cccc(O)c2c1C` [drawing 82] reads 0.2 µg/mL (≈ 0.908 µM); that for `CCOC(=O)c1oc2cccc(OC(C)=O)c2c1C` [drawing 86], 5 µg/mL (≈ 19.1 µM).

The values above are taken from patent US4663347A, “Benzofuran 2-carboxylic acid esters useful as inhibitors of leukotriene biosynthesis” (Merck Frosst Canada, Inc., priority 1985, dated 1987).
